Laboratory results published in ChEMBL document CHEMBL1129749, “Nudicauline and elatine as potent norditerpenoid ligands at rat neuronal alpha-bungarotoxin binding sites: importance of the 2-(methylsuccinimido)benzoyl moiety for neuronal nicotinic acetylcholine receptor binding” (J Med Chem, 1996).

Target: Neuronal acetylcholine receptor subunit alpha-7 (Rattus norvegicus, UniProt Q05941)
Test: Binding affinity of Norditerpenoid Alkaloids at rat neuronal alpha7-type nicotinic acetylcholine receptor

Chain of Neuronal acetylcholine receptor subunit alpha-7 (Q05941 whole entry): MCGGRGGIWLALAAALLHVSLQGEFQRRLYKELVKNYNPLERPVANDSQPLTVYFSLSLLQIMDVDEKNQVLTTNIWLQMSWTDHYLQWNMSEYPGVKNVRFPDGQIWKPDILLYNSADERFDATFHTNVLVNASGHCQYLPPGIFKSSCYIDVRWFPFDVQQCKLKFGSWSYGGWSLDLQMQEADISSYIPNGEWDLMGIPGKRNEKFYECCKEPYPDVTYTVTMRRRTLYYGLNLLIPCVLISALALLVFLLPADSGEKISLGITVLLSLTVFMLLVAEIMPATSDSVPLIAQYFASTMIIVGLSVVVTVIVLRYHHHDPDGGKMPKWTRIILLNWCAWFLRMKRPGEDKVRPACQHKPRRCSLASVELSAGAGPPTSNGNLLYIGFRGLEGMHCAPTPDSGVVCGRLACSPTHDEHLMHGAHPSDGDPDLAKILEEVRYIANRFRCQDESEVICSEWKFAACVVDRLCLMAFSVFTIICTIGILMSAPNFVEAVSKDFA

Row | Structure (SMILES) | IC50 [µM]
1 | CCN1C[C@]2(OC(=O)c3ccccc3N)CC[C@H](OC)[C@]34C1[C@@H](CC23)[C@@]1(O)C[C@H](OC)[C@H]2CC4[C@]1(O)[C@H]2OC (some centres undefined) | 6.8
2 | CCN1C[C@]2(OC(=O)c3ccccc3NC(C)=O)CC[C@H](OC)[C@@]34[C@@H]2C[C@@H]([C@@H]13)[C@@]1(O)C[C@H](OC)[C@H]2C[C@@H]4[C@]1(O)[C@H]2OC | 96
3 | CCN1C[C@]2(COC)CC[C@H](O)[C@@]34C5C[C@@H]6[C@@H](OC)C[C@](O)(C(CC23)C14)C5[C@H]6OC(C)=O (some centres undefined) [CONDELPHINE] | 1.6
4 | CCN1C[C@]2(COC)CC[C@H](OC)[C@]34C5C[C@@H]6[C@@H](OC)C[C@@]7(OCO[C@@]7(C13)[C@@H](O)C24)C5[C@H]6OC (some centres undefined) [DELCORINE] | 53
5 | CCN1C[C@]2(COC)CC[C@H](O)[C@]34C1[C@@](O)([C@@H](OC)[C@H]23)[C@@]1(O)C[C@H](OC)[C@H]2C[C@@H]4[C@@H]1[C@H]2OC [DELSOLINE] | 19
6 | CCN1C[C@]2(C)CC[C@H](OC)[C@@]34C1[C@]1(OCO[C@@]15C[C@H](OC)[C@H]1C[C@]3(O)[C@@H]5[C@H]1OC)[C@@H](OC(C)=O)[C@H]24 [DELTALINE] | 110
7 | CCN1C[C@]2(COC(=O)c3ccccc3N3C(=O)C[C@H](C)C3=O)CC[C@H](OC)[C@@]34C1[C@@]1(OCO[C@@]15C[C@H](OC)[C@H]1C[C@@H]3[C@@H]5[C@H]1OC)[C@@H](OC)[C@H]24 [ELATINE] | 0.0061
8 | CCN1C[C@]2(CO)CC[C@H](OC)[C@@]34[C@@H]5C[C@H]6[C@H](OC)[C@@H]5[C@](O)(C[C@@H]6OC)[C@](O)([C@@H](OC)[C@H]23)[C@@H]14 [LYCOCTONINE] | 10
9 | CCN1C[C@]2(COC(=O)c3ccccc3N3C(=O)C[C@H](C)C3=O)CC[C@H](OC)[C@]34C5C[C@@H]6[C@@H](OC)C[C@@](O)(C5[C@H]6OC(C)=O)[C@](O)(C13)[C@@H](OC)C24 (some centres undefined) [NUDICAULINE] | 0.0017
